ChEMBL document CHEMBL5463729, “Data for DCP probe BAY 1753011” (2023)
The source made the active and inactive calls. The calls are words filed in the database; no cut-off is given here.

Tests used:
[1] = target: Cyclin-dependent kinase 2/cyclin E1 (Homo sapiens) (UniProt P24864+P24941); experiment: Inhibition of CDK2/cyclinE(h) at 10.0 µM in the Eurofins Kinase panel; format: protein-complex assay; conditions: Compound concentration 10.0 uM
[2] = target: 5-hydroxytryptamine receptor 2A (Homo sapiens) (UniProt P28223); conditions: Compound concentration 10.0 uM
[3] = target: Serine-protein kinase ATM (Homo sapiens) (UniProt Q13315); experiment: Inhibition of ATM(h) at 10.0 µM in the Eurofins Kinase panel; conditions: Compound concentration 10.0 uM
[4] = target: Serine/threonine-protein kinase Chk1 (Homo sapiens) (UniProt O14757); experiment: Inhibition of CHK1(h) at 10.0 µM in the Eurofins Kinase panel; conditions: Compound concentration 10.0 uM
[5] = target: Serine/threonine-protein kinase 33 (Homo sapiens) (UniProt Q9BYT3); experiment: Inhibition of STK33(h) at 10.0 µM in the Eurofins Kinase panel; conditions: Compound concentration 10.0 uM
[6] = target: D(1B) dopamine receptor (Homo sapiens) (UniProt P21918); conditions: Compound concentration 10.0 uM
[7] = target: Vasopressin V2 receptor (Homo sapiens, UniProt P30518); experiment: Radiometric AVPR2 binding assay (Eurofins #287610)
[8] = target: T1, 5-hydroxytryptamine receptor 1A (Homo sapiens) (UniProt P08908); conditions: Compound concentration 10.0 uM
T1 sequence (whole entry): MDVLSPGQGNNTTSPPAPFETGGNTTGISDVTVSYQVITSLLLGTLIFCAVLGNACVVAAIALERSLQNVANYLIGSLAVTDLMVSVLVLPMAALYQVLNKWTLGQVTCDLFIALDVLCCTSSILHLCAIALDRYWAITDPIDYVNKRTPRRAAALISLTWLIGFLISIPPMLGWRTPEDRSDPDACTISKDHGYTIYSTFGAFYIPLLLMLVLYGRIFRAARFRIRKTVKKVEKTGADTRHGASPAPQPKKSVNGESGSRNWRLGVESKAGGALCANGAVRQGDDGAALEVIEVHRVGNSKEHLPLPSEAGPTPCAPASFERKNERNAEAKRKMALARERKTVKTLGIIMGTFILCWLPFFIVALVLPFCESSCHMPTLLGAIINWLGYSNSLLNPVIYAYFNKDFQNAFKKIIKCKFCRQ

[9] = target: Insulin receptor (Homo sapiens) (UniProt P06213); conditions: Rattus norvegicus; Compound concentration 10.0 uM
[10] = target: Glutamate NMDA receptor (Rattus norvegicus) (UniProt P35439+Q00959+Q00960+Q00961+Q62645+Q8VHN2+Q9R1M7); conditions: Compound concentration 10.0 uM
[11] = target: Bone morphogenetic protein receptor type-1B (Homo sapiens) (UniProt O00238); experiment: Inhibition of ALK6(h) at 10.0 µM in the Eurofins Kinase panel; conditions: Compound concentration 10.0 uM
[12] = target: T2, Alpha-2A adrenergic receptor (Homo sapiens) (UniProt P08913); conditions: Compound concentration 10.0 uM
T2 sequence (whole entry): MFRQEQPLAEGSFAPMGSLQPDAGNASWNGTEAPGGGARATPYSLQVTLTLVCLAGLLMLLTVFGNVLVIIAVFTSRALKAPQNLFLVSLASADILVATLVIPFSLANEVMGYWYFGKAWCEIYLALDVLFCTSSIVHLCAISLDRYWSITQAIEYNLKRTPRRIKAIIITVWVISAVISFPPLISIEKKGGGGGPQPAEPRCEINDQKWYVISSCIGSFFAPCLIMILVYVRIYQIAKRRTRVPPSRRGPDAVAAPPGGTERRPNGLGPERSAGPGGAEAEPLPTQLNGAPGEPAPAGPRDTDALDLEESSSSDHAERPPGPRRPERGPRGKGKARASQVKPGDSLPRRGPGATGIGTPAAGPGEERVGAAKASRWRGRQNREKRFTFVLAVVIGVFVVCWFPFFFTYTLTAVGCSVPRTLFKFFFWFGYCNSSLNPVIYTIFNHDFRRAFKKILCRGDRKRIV

[13] = target: Serine/threonine-protein kinase 3 (Homo sapiens) (UniProt Q13188); experiment: Inhibition of MST2(h) at 10.0 µM in the Eurofins Kinase panel; conditions: Compound concentration 10.0 uM
[14] = target: Cyclin-dependent kinase 14/Cyclin-Y (Homo sapiens) (UniProt O94921+Q8ND76); experiment: Inhibition of CDK14/cyclinY(h) at 10.0 µM in the Eurofins Kinase panel; format: protein-complex assay; conditions: Compound concentration 10.0 uM
[15] = target: Mitogen-activated protein kinase kinase kinase 10 (Homo sapiens) (UniProt Q02779); experiment: Inhibition of MLK2(h) at 10.0 µM in the Eurofins Kinase panel; conditions: Compound concentration 10.0 uM
[16] = target: Serine/threonine-protein kinase PAK 2 (Homo sapiens) (UniProt Q13177); experiment: Inhibition of PAK2(h) at 10.0 µM in the Eurofins Kinase panel; conditions: Compound concentration 10.0 uM
[17] = target: Vasopressin V1a receptor (Homo sapiens, UniProt P37288)
[18] = target: Muscle, skeletal receptor tyrosine-protein kinase (Homo sapiens) (UniProt O15146); experiment: Inhibition of MuSK(h) at 10.0 µM in the Eurofins Kinase panel; conditions: Compound concentration 10.0 uM
[19] = target: LIM domain kinase 1 (Homo sapiens) (UniProt P53667); experiment: Inhibition of LIMK1(h) at 10.0 µM in the Eurofins Kinase panel; conditions: Compound concentration 10.0 uM
[20] = target: Endothelin receptor type B (Homo sapiens) (UniProt P24530); conditions: Compound concentration 10.0 uM
[21] = target: Tyrosine-protein kinase JAK1 (Homo sapiens) (UniProt P23458); experiment: Inhibition of JAK1(h) at 10.0 µM in the Eurofins Kinase panel; conditions: Compound concentration 10.0 uM
[22] = target: Vasopressin V1b receptor (Homo sapiens, UniProt P47901); experiment: Radiometric AVPR1B binding assay (Eurofins #287560)
[23] = target: Receptor-interacting serine/threonine-protein kinase 2 (Homo sapiens) (UniProt O43353); experiment: Inhibition of RIPK2(h) at 10.0 µM in the Eurofins Kinase panel; conditions: Compound concentration 10.0 uM
[24] = target: G protein-coupled receptor kinase 6 (Homo sapiens) (UniProt P43250); experiment: Inhibition of GRK6(h) at 10.0 µM in the Eurofins Kinase panel; conditions: Compound concentration 10.0 uM
[25] = target: Histamine H4 receptor (Homo sapiens) (UniProt Q9H3N8); conditions: Compound concentration 10.0 uM
[26] = target: Insulin receptor (Homo sapiens) (UniProt P06213); experiment: Inhibition of IR(h), activated at 10.0 µM in the Eurofins Kinase panel; conditions: Compound concentration 10.0 uM
[27] = target: MAP kinase-interacting serine/threonine-protein kinase 2 (Homo sapiens) (UniProt Q9HBH9); experiment: Inhibition of Mnk2(h) at 10.0 µM in the Eurofins Kinase panel; conditions: Compound concentration 10.0 uM
[28] = target: Serine/threonine-protein kinase LATS2 (Homo sapiens) (UniProt Q9NRM7); experiment: Inhibition of LATS2(h) at 10.0 µM in the Eurofins Kinase panel; conditions: Compound concentration 10.0 uM
[29] = target: D(2) dopamine receptor (Homo sapiens) (UniProt P14416); conditions: Compound concentration 10.0 uM
Chain of D(2) dopamine receptor (Homo sapiens) (P14416 whole entry): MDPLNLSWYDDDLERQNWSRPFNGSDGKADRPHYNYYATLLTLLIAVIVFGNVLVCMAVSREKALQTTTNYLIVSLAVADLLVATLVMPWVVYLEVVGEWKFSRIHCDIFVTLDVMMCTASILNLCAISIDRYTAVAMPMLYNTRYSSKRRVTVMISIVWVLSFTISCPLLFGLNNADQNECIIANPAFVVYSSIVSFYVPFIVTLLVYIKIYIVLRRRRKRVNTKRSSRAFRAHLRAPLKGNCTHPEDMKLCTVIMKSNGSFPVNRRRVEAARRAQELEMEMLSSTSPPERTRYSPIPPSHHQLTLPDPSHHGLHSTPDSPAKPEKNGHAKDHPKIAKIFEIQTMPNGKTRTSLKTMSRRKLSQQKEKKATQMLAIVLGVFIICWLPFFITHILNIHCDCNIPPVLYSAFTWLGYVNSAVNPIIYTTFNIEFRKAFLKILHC

Chain of D(1B) dopamine receptor (Homo sapiens) (P21918 whole entry): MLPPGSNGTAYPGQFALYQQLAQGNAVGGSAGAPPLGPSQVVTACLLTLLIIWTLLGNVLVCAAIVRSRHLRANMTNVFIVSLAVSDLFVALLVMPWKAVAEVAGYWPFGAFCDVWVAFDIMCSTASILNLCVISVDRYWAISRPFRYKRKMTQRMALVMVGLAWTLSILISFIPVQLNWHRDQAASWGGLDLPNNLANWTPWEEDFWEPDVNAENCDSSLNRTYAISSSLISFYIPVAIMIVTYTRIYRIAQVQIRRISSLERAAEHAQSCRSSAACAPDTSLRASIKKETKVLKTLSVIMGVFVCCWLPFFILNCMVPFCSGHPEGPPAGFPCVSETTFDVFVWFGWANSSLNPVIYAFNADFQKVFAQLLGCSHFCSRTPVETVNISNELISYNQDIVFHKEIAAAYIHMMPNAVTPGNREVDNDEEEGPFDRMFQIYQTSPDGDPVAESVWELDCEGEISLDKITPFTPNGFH
Chain of Histamine H4 receptor (Homo sapiens) (Q9H3N8 whole entry): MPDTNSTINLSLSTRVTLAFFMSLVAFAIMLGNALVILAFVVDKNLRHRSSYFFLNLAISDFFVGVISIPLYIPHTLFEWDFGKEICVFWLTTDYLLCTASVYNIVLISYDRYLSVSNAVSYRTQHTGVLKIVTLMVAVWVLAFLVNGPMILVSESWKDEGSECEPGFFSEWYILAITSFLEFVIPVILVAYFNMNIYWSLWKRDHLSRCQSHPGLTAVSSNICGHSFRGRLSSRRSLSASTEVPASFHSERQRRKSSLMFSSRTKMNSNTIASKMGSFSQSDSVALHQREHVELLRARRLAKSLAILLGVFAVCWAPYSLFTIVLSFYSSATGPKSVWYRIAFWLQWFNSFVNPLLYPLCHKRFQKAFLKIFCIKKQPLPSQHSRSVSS
Chain of 5-hydroxytryptamine receptor 2A (Homo sapiens) (P28223 whole entry): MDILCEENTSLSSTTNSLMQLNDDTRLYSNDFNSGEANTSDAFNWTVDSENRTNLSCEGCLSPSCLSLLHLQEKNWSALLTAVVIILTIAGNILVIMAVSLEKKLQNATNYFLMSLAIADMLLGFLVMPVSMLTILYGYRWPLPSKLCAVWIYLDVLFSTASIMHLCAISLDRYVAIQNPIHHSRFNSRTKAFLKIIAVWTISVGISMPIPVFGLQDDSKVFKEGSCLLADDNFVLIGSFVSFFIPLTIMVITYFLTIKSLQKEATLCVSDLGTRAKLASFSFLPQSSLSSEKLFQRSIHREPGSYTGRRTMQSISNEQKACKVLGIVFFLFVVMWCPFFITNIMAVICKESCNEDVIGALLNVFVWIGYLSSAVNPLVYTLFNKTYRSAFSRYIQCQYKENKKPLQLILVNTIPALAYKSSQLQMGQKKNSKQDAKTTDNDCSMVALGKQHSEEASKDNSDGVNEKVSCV
Chain of Insulin receptor (Homo sapiens) (P06213 28-758 limits assumed): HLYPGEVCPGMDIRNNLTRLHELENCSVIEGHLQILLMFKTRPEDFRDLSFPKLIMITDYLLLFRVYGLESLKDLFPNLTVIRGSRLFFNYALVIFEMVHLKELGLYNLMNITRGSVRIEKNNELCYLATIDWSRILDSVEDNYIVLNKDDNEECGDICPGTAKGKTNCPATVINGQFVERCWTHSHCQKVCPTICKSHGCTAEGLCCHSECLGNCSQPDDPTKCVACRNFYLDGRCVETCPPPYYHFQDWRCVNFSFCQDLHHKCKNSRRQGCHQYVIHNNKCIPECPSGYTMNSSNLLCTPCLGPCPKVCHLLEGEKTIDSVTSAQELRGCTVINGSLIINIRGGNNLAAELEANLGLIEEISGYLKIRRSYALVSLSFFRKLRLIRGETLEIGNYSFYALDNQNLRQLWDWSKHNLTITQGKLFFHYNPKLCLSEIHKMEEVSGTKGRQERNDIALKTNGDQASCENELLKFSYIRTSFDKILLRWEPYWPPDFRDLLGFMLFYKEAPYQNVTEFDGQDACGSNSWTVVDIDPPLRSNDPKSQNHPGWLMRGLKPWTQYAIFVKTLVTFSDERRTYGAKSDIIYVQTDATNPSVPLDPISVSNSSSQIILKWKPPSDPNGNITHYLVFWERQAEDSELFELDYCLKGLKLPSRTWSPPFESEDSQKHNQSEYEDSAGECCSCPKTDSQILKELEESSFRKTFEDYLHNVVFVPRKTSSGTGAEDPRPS
Chain of Insulin receptor (Homo sapiens) (P06213 763-1382 limits assumed): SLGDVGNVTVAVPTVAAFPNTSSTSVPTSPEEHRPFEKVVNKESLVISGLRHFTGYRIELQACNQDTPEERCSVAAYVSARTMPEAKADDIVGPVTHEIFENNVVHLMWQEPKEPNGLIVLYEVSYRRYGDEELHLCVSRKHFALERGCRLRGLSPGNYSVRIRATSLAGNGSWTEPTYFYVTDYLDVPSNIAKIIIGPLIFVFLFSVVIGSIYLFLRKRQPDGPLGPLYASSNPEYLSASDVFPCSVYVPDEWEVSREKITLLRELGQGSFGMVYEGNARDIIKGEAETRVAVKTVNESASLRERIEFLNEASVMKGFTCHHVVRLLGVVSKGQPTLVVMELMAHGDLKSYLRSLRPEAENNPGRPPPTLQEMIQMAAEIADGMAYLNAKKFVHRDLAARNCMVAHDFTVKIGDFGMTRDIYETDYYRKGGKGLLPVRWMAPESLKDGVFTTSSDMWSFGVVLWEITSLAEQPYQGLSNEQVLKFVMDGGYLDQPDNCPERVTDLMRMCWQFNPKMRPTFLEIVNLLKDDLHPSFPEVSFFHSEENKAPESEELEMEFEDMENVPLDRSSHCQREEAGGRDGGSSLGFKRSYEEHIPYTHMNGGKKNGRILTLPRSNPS
Chain of MAP kinase-interacting serine/threonine-protein kinase 2 (Homo sapiens) (Q9HBH9 whole entry, looked up): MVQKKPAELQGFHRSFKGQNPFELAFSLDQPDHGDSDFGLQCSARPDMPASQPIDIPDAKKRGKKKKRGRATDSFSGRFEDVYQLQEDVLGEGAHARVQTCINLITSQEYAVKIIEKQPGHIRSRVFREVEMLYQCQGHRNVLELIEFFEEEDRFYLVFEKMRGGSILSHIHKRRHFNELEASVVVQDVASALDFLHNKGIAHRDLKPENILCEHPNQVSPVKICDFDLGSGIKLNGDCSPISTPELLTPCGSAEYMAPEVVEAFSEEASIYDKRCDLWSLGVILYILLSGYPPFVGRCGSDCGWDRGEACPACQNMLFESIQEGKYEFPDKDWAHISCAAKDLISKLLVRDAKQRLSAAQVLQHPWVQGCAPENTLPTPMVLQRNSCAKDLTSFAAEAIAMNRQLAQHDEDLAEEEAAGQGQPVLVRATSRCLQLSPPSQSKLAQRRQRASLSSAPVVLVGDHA
Chain of Receptor-interacting serine/threonine-protein kinase 2 (Homo sapiens) (O43353 whole entry): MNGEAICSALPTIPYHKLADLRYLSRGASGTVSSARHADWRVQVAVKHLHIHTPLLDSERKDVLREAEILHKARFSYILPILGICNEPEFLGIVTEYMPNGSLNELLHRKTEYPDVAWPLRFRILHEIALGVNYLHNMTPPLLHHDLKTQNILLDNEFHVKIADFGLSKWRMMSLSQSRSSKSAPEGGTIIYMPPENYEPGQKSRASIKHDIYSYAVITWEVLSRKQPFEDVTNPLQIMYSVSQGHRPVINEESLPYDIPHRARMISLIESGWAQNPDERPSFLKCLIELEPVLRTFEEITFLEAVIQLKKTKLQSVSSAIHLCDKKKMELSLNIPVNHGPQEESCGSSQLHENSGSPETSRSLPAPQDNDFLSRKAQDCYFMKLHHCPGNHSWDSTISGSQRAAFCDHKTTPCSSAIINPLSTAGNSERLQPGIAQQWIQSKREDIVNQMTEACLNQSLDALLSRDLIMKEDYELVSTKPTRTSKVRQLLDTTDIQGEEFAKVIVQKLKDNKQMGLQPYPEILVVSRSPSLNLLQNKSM
Chain of Serine/threonine-protein kinase 33 (Homo sapiens) (Q9BYT3 whole entry, looked up): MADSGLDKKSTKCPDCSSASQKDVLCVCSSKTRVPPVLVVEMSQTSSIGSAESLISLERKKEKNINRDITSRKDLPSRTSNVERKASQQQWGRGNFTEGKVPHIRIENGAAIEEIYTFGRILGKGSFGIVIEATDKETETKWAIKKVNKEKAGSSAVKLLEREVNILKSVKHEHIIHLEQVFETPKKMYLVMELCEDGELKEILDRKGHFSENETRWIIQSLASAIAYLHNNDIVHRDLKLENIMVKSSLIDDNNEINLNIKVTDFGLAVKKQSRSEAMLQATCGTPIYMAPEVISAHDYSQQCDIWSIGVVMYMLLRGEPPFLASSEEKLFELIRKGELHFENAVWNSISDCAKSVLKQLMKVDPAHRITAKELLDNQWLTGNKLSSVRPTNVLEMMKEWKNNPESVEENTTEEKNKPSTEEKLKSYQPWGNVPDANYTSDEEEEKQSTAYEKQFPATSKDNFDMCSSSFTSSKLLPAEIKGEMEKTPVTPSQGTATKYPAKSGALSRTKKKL

Row | Structure (SMILES) | inhibition [1] | inhibition [2] | inhibition [3] | inhibition [4] | inhibition [5] | inhibition [6] | Ki [7] | inhibition [8] | inhibition [9] | inhibition [10] | inhibition [11] | inhibition [12] | inhibition [13] | inhibition [14] | inhibition [15] | inhibition [16] | inhibition [18] | inhibition [19] | inhibition [20] | inhibition [21] | further results
1 | O=c1n(Cc2cncn2-c2cccc(Cl)c2)nc(-c2ccc(Cl)cc2)n1C[C@H](O)C(F)(F)F | 3.43% | -2.02% | -1.92% | 1.73% | 6.15% | 19.6% | > 10 µM (not active) | -1% | 1% | -8% | -0.99% | 5% | -1.52% | -0.16% | 0.43% | 1.99% | 0.19% | 0.42% | 1% | 8.74% | inhibition ([17]; Compound concentration 10.0 uM): 28%; Ki [22]: > 10 µM (not active); inhibition [23]: -2.28%; inhibition [24]: -0.21%; inhibition [25]: 0.51%; inhibition [26]: 2.21%; inhibition [27]: -0.78%; inhibition [28]: 5.08%; inhibition [29]: -8.61%
2 | C[C@H](O)c1nc(Cn2nc(-c3ccc(Cl)cc3)n(C[C@H](O)C(F)(F)F)c2=O)nn1-c1cccc(Cl)c1 [PECAVAPTAN] | -0.04% | 0.62% | 1.99% | 2.42% | 6.36% | 1.94% | 0.0006 µM (active) | -2% | -1% | 2% | -1.01% | 3% | -2.77% | -0.61% | 4.18% | 3.11% | -2.36% | 0.57% | 5% | -1.72% | inhibition ([17]; Compound concentration 0.01 uM): 65%; Ki [22]: > 10 µM (not active); inhibition [23]: -1.02%; inhibition [24]: 1.15%; inhibition [25]: -1.47%; inhibition [26]: -4.02%; inhibition [27]: 3.54%; inhibition [28]: 3.15%; inhibition [29]: -5.84%
